Measured values as given in patent publication US20050112573A1, “Method of detecting toxic substance” (priority 2001, published 2005).

Tested on: yeast genes (level of expressed mRNA)
Test: DNA chip analysis of expressed mRNA of yeast genes after 2 h culture with a toxic chemical substance
Assay type: cell-based, Saccharomyces cerevisiae S288C
Conditions: for The level of expressed mRNA in the presence of chemical substance/ (ratio to absence of chemical substance): stress protein genes, DNA chip; for The level of expressed mRNA in the presence of chemical substance/ in its absence, gene YPR184W: yeast gene YPR184W
Procedure, shortened: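 Values are treated-to-control fluorescence ratios from a whole-yeast-genome DNA chip (65° C, over 12 h hybridization) using Cy3/Cy5-labelled cDNA from mRNA. Log-phase S288C cells in YPD at 25° C were exposed 2 h to a toxicant at sublethal, growth-inhibiting concentration.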

Structure (SMILES): C=CC=O [(14), acrolein]
- The level of expressed mRNA in the presence of chemical substance/The level of expressed mRNA in the absence of chemical substance (yeast gene YNL006W): 0.8
- The level of expressed mRNA in the presence of chemical substance/The level of expressed mRNA in the absence of chemical substance (yeast gene YNL007C): 0.4
- The level of expressed mRNA in the presence of chemical substance/ (in its absence), gene YNL025C (yeast gene YNL025C, ratio of DNA chip fluorescence intensity to that without chemical substance): 1.2
- The level of expressed mRNA in the presence of chemical substance/ (ratio to absence of chemical substance) (yeast gene YNL064C): 0.8
- The level of expressed mRNA in the presence of chemical substance/ (ratio to absence), gene YNL073W (yeast gene YNL073W, mitochondria-located protein genes, 2 h culture with chemical): 0.7
- The level of expressed mRNA in the presence of chemical substance/The level of expressed mRNA in the absence of chemical substance (yeast gene YNL093W): 1.1
- The level of expressed mRNA in the presence of chemical substance/ (in its absence), gene YNL192W (yeast gene YNL192W, ratio of DNA chip fluorescence intensity to that without chemical substance): 0.7
- The level of expressed mRNA in the presence of chemical substance/The level of expressed mRNA in the absence of chemical substance (yeast gene YNL333W): 1.9
- The level of expressed mRNA in the presence of chemical substance/The level of expressed mRNA in the absence of chemical substance (yeast gene YNR010W): 1.3
- The level of expressed mRNA in the presence of chemical substance/The level of expressed mRNA in the absence of chemical substance (yeast gene YNR069C): 2.1
- The level of expressed mRNA in the presence of chemical substance/ (in its absence), gene YNR072W (yeast gene YNR072W, ratio of DNA chip fluorescence intensity to that without chemical substance): 1.0
- The level of expressed mRNA in the presence of chemical substance/ (ratio to absence of chemical substance) (yeast gene YNR076W): 0.8
- The level of expressed mRNA in the presence of chemical substance/The level of expressed mRNA in the absence of chemical substance (yeast gene YOL013C): 0.9
- The level of expressed mRNA in the presence of chemical substance/ (ratio to absence), gene YOL096C (yeast gene YOL096C, mitochondria-located protein genes, 2 h culture with chemical): 1.4
- The level of expressed mRNA in the presence of chemical substance/ (in its absence), gene YOL096C (yeast gene YOL096C, ratio of DNA chip fluorescence intensity to that without chemical substance): 1.4
- The level of expressed mRNA in the presence of chemical substance/ (in its absence), gene YOL108C (yeast gene YOL108C, ratio of DNA chip fluorescence intensity to that without chemical substance): 0.9
- The level of expressed mRNA in the presence of chemical substance/ (in its absence), gene YOL116W (yeast gene YOL116W, ratio of DNA chip fluorescence intensity to that without chemical substance): 0.9
- The level of expressed mRNA in the presence of chemical substance/ (ratio to absence of chemical substance) (yeast gene YOL161C): 0.9
- The level of expressed mRNA in the presence of chemical substance/The level of expressed mRNA in the absence of chemical substance (yeast gene YOL164W): 1.3
- The level of expressed mRNA in the presence of chemical substance/ (ratio to absence of chemical substance) (yeast gene YOR008C): 0.9
- The level of expressed mRNA in the presence of chemical substance/ (ratio to absence of chemical substance) (yeast gene YOR009W): 0.7
- The level of expressed mRNA in the presence of chemical substance/ (ratio to absence of chemical substance) (yeast gene YOR010C): 0.4
- The level of expressed mRNA in the presence of chemical substance/The level of expressed mRNA in the absence of chemical substance (yeast gene YOR036W): 1.2
- The level of expressed mRNA in the presence of chemical substance/ (in its absence), gene YOR103C (yeast gene YOR103C, ratio of DNA chip fluorescence intensity to that without chemical substance): 1.2
- The level of expressed mRNA in the presence of chemical substance/The level of expressed mRNA in the absence of chemical substance (yeast gene YOR117W): 1.0
- The level of expressed mRNA in the presence of chemical substance/The level of expressed mRNA in the absence of chemical substance (yeast gene YOR124C): 0.8
- The level of expressed mRNA in the presence of chemical substance/The level of expressed mRNA in the absence of chemical substance (yeast gene YOR132W): 0.7
- The level of expressed mRNA in the presence of chemical substance/The level of expressed mRNA in the absence of chemical substance (yeast gene YOR157C): 2.2
- The level of expressed mRNA in the presence of chemical substance/ (in its absence), gene YOR180C (yeast gene YOR180C, ratio of DNA chip fluorescence intensity to that without chemical substance): 1.0
- The level of expressed mRNA in the presence of chemical substance/The level of expressed mRNA in the absence of chemical substance (yeast gene YOR181W): 0.9
- The level of expressed mRNA in the presence of chemical substance/The level of expressed mRNA in the absence of chemical substance (yeast gene YOR185C): 2.1
- The level of expressed mRNA in the presence of chemical substance/The level of expressed mRNA in the absence of chemical substance (yeast gene YOR198C): 1.1
- The level of expressed mRNA in the presence of chemical substance/ (in its absence), gene YOR251C (yeast gene YOR251C, ratio of DNA chip fluorescence intensity to that without chemical substance): 1.1
- The level of expressed mRNA in the presence of chemical substance/The level of expressed mRNA in the absence of chemical substance (yeast gene YOR259C): 1.2
- The level of expressed mRNA in the presence of chemical substance/The level of expressed mRNA in the absence of chemical substance (yeast gene YOR261C): 1.8
- The level of expressed mRNA in the presence of chemical substance/The level of expressed mRNA in the absence of chemical substance (yeast gene YOR288C): 0.8
- The level of expressed mRNA in the presence of chemical substance/ (ratio to absence), gene YOR316C (yeast gene YOR316C, mitochondria-located protein genes, 2 h culture with chemical): 1.0
- The level of expressed mRNA in the presence of chemical substance/ (in its absence), gene YOR348C (yeast gene YOR348C, ratio of DNA chip fluorescence intensity to that without chemical substance): 1.2
- The level of expressed mRNA in the presence of chemical substance/The level of expressed mRNA in the absence of chemical substance (yeast gene YOR355W): 0.6
- The level of expressed mRNA in the presence of chemical substance/ (in its absence), gene YOR363C (yeast gene YOR363C, ratio of DNA chip fluorescence intensity to that without chemical substance): 0.9
- The level of expressed mRNA in the presence of chemical substance/The level of expressed mRNA in the absence of chemical substance (yeast gene YOR383C): 0.6
- The level of expressed mRNA in the presence of chemical substance/ (ratio to absence), gene YPL040C (yeast gene YPL040C, mitochondria-located protein genes, 2 h culture with chemical): 1.1
- The level of expressed mRNA in the presence of chemical substance/ (ratio to absence of chemical substance) (yeast gene YPL059W): 1.3
- The level of expressed mRNA in the presence of chemical substance/The level of expressed mRNA in the absence of chemical substance (yeast gene YPL089C): 0.8
- The level of expressed mRNA in the presence of chemical substance/The level of expressed mRNA in the absence of chemical substance (yeast gene YPL109C): 1.3
- The level of expressed mRNA in the presence of chemical substance/ (ratio to absence), gene YPL134C (yeast gene YPL134C, mitochondria-located protein genes, 2 h culture with chemical): 1.4
- The level of expressed mRNA in the presence of chemical substance/ (ratio to absence of chemical substance) (yeast gene YPL140C): 1.1
- The level of expressed mRNA in the presence of chemical substance/ (in its absence), gene YPL148C (yeast gene YPL148C, ratio of DNA chip fluorescence intensity to that without chemical substance): 1.6
- The level of expressed mRNA in the presence of chemical substance/The level of expressed mRNA in the absence of chemical substance (yeast gene YPL149W): 1.0
- The level of expressed mRNA in the presence of chemical substance/The level of expressed mRNA in the absence of chemical substance (yeast gene YPL154C): 0.8
- The level of expressed mRNA in the presence of chemical substance/ (ratio to absence of chemical substance) (yeast gene YPL194W): 1.1
- The level of expressed mRNA in the presence of chemical substance/ (ratio to absence of chemical substance) (yeast gene YPR005C): 1.3
- The level of expressed mRNA in the presence of chemical substance/The level of expressed mRNA in the absence of chemical substance (yeast gene YPR103W): 1.8
- The level of expressed mRNA in the presence of chemical substance/The level of expressed mRNA in the absence of chemical substance (yeast gene YPR108W): 1.0
- The level of expressed mRNA in the presence of chemical substance/ (in its absence), gene YPR165W (yeast gene YPR165W, ratio of DNA chip fluorescence intensity to that without chemical substance): 1.0
- The level of expressed mRNA in the presence of chemical substance/ in its absence, gene YPR184W (energy system protein genes, 2 h culture with the chemical, ratio to control without chemical): 1.3
- The level of expressed mRNA in the presence of chemical substance/ in its absence, gene YPR184W (ratio of DNA chip fluorescence intensity to that without chemical substance): 1.3
